In patent US20250388623A1, “PEPTIDE INHIBITOR AND USE THEREOF” (CHENGDU BRILLIANT INSPIRATION BIOTHERAPEUTICS CO., LTD, priority 2022, published 2025):

Legend:
active TGF-β = assay: Active TGF-β level in lung tissue, bleomycin (BLM) mouse lung fibrosis model; type: in vivo; conditions: single intratracheal dose 3 mg/kg on Day 7, lung 24 h later; BLM model group = 100.00
Excerpt: This Example was to evaluate the inhibitory effect of polypeptides on active TGF-β level during the progression of fibrotic disease. In this Example, a mouse lung fibrosis model induced by bleomycin (BLM) was used. The BLM animal model offers advantages, including a close mimicry of the pathological features of the primary disease, ease of use, and good reproducibility. It is the most representative model for studying the mechanisms of fibrosis and is recommended for evaluating drug efficacy.
In this Example, 6 to 8-week-old male C57/6J mice weighing 18-20 g were used as subjects for the study. The experimental animals were randomized into groups, 8 animals in each group, and the expressions of pro-fibrotic factors were detected at the endpoint of the experiment (Day 8) in this model. In this example, an aerosol intratracheal metered dosing applicator (Yuyan, model YAN30012) was utilized for intratracheal administration during the modeling and drug delivery processes. The dosing was performed as follows (An Official American Thoracic Society Workshop Report: Use of Animal Models for the Preclinical Assessment of Potential Therapies for Pulmonary Fibrosis, Am J Respir Cell Mol Biol Vol 56, Iss 5, pp 667-679, May 2017): The experimental animals were anesthetized with aerosolized isoflurane (RWD, lot no. 22041701) using a small animal anesthesia machine (RWD, model R500IE). Animals in the appropriate anesthetic state were positioned supine with heads facing up and bodies tilted on an operating platform (tilted at approximately) 60°, secured by their incisors. The practitioner gently lifted the tongue with tissue forceps in the right hand, pushing it outward and upward to open the animal's lower jaw. Holding the laryngoscope (Yuyan, model SR310-RW) in the left hand, the practitioner slid its anterior leaf-shaped blade along the midline of the tongue into the oral cavity until reaching the glottis, gently pressing the body and root of the tongue upward. The needle of the drug applicator was then inserted through the mouth into the glottis alongside the laryngoscope, and 50 μL of liquid was quickly injected. On the day of modeling (Day 1), the experimental animals were randomly assigned to groups and administered a 0.7 USP/kg dose of bleomycin solution (HanHui Pharmaceutical, Batch No. 20080511) via the tracheal route to induce the model. On Day 7, each peptide-treated group received a single intratracheal dose of 50 μL peptide drug (at a dosage of 3 mg/kg), while the model group was given an equal volume of solvent (saline, Kelong, Batch No. L221062501) as a control. Twenty-four hours after drug administration, the animals were dissected to collect lung tissue, which was ground in liquid nitrogen to extract total protein from the lung tissue. The active TGF-β content in the lung tissue of mice from each group was measured using the TGF-β ELISA kit (BOSTER, catalog number EK0515). The ratio of active TGF-β content between the peptide-treated group and the model group was calculated to evaluate the effect of the peptide on active TGF-β level.

[1] = molecular target: T1, binding of TSP-1 protein to CD36, a TSP-1 receptor protein (Homo sapiens, UniProt P07996); assay: ELISA: blocking of CD36 binding to TSP-1 protein
T1 construct: purchased novoprotein (TSP-1); R&D Systems (Fc-tagged CD36) CU45 (TSP-1); 1955-CD-050 (CD36-Fc)
Protocol: ELISA assay was performed to detect the ability of the polypeptides to block the binding of TSP-1 protein to CD36, a TSP-1 receptor protein. TSP-1 protein (novoprotein, Catalog No. CU45) was diluted to 2 μg/mL using 100 mM carbonate buffer and added to sample wells (100 μL/well) of a 96-well ELISA plate (Thermo, Catalog No. 437111), and incubated overnight at 4° C.; after washing the plate twice using 1×PBST wash solution, 200 μL of 1.5% BSA (Sigma, Catalog No. B2064) was added to each well, and incubated at 37° C. for 2 h; after washing the plate 3 times using 1×PBST wash solution, the analytes were added (100 μL/well, 3 replicate wells; for the control group, 0.25 μg/mL of Fc-tagged CD36 protein (R&D Systems, Catalog No. 1955-CD-050); and for the polypeptide-treated groups, a mixture containing Fc-tagged CD36 protein and polypeptide at final concentrations of 0.25 μg/mL and 100 μM, respectively), and incubated at 37° C. for 3 h. After washing the plate 5 times using 1×PBST wash solution, a 1:500 dilution solution of FITC-labeled anti-Fc-tagged antibody (Beyotime, Catalog No. A0556) was added, and incubated for 1 h at 37° C.; after washing the plate 5 times using 1×PBST wash solution, a multifunctional ELISA instrument (TECAN, model: Infinite 200 Pro) was used to detect the intensity of FITC fluorescence signal in each sample well. The ability of the polypeptides to block CD36 binding to TSP-1 protein (Table 2-1) was assessed by calculating the ratio of the fluorescence signal from the polypeptide-treated groups to that of the control group, allowing for the determination of the blocking rate of the polypeptides in inhibiting CD36 binding to TSP-1 protein, i.e., (fluorescence signal of the control group-fluorescence signal of the polypeptide-treated group)/fluorescence signal of the control group×100%. Based on the blocking rate results obtained at the single concentration and on the polypeptide molecule properties, the preferred polypeptide molecules were assayed for concentration dependence (at 0 μM, 0.5 μM, 1 μM, 5 μM, 10 μM, and 100 μM), and IC50 values of the polypeptides for blocking CD36 binding to TSP-1 protein were determined to further assess the abilities of the preferred polypeptide molecules to block the binding of CD36 to TSP-1 (Table 2-2).

[2] = test system: human breast cancer MCF7 cells; assay: Transwell tumor cell migration, co-culture with PMA-differentiated THP-1 cells; type: cell-based; conditions: 100 μM polypeptide 48 h, co-culture 48 h; negative control group = 100.00
Protocol: (§1) This Example was to assess the effects of polypeptides on the migration abilities of different tumor cells. The experiment was performed using transwell nested chambers (membrane pore size of 8 μm), where THP-1 cells were inoculated in the lower chamber and treated with 300 nM PMA (Sigma, Catalog No.P1585) for differentiation and chamber-wall adherence, and then treated with 100 μM polypeptide (in the negative control, an equal volume of solvent was added) for 48 hours. The upper chamber was inoculated with tumor cells, human lung adenocarcinoma A549 cells (American Typical Culture Collection, ATCC, CCL-18), and co-cultured for 24 hours; or inoculated with human liver cancer HepG2/C3A cells (ATCC, CRL-10741), and co-cultured for 24 h; or inoculated with human breast cancer MCF7 cells (ATCC, HTB-22), and co-cultured for 48 h. After that, the upper chamber was taken out, fixed with 70% ethanol for 10 min and washed, then stained with Giemsa staining solution (Beyotime, Catalog No.C0131) for 45 min. After washing with double distilled water 2-3 times, unmigrated cells were wiped off the upper layer with a cotton swab. After the chamber was dried, it was observed under a microscope, and five different fields of view under a 100× magnification were randomly selected for counting and statistics. The polypeptides had significant inhibitory effects on the migratory abilities of human lung adenocarcinoma cells, human liver cancer cells, and human breast cancer cells.

[3] = test system: human lung adenocarcinoma A549 cells; assay: as above; type: cell-based; conditions: 100 μM polypeptide 48 h, co-culture 24 h; negative control group = 100.00
Protocol: as §1

[4] = test system: human liver cancer HepG2/C3A cells; assay: as above; type: cell-based; conditions: 100 μM polypeptide 48 h, co-culture 24 h; negative control group = 100.00
Protocol: as §1

P-Smad2/3 = P-Smad2/3 content in lung tissue, BLM mouse fibrosis model; type: in vivo; conditions: single intratracheal dose 3 mg/kg on Day 7, lung 24 h later; BLM model group = 100.00
Excerpt: This example aimed to evaluate the inhibitory effect of polypeptides on the TGF-β downstream signaling pathway during fibrosis progression. TGF-β intracellular signaling relies on the phosphorylation events of Smad family proteins. The increase in Smad2/3 phosphorylation levels is an important indicator that signal transduction has occurred in the TGF-β signaling pathway.
In this example, 6- to 8-week-old male C57/6J mice weighing 18-20 g were used as subjects for the study. The experimental animals were randomized into groups, eight animals in each group. In this example, intratracheal administration was performed using an aerosol intratracheal metered dosing applicator during both the modeling and drug delivery processes, as described in Example 4. On the day of modeling (Day 1), the experimental animals were randomly assigned to groups and administered a 0.7 USP/kg dose of bleomycin solution (HanHui Pharmaceutical, Batch No. 20080511) via the tracheal route to induce the model. On Day 7, each peptide-treated group received a single intratracheal dose of peptide drug at a dosage of 3 mg/kg, while the BLM model group was given an equal volume of solvent (saline) as a control. Twenty-four hours after drug administration, the animals were dissected, and the lung tissues were collected and frozen in liquid nitrogen for future use. Total protein from the lung tissue was extracted after grinding the tissue in liquid nitrogen, and the total P-Smad2/3 content in the tissue was measured by using P-Smad2/3 ELISA kit (CST, Catalog No. 12001C). The ratio of the P-Smad2/3 content between the peptide-treated group and the model group was calculated to evaluate the effect of the peptide on TGFβ signaling.

[5] = test system: mouse lung fibrosis model induced by bleomycin (BLM); assay: Inflammatory and fibrotic pathology (HE, Masson's trichrome) in BLM mouse fibrosis model; type: in vivo; parameters: scale not given here
Protocol: This Example was to assess the inhibitory effect of polypeptides on fibrotic pathology. 6- to 8-week-old male C57/6J mice weighing 18-20 g were used as subjects for the study. The experimental animals were randomized into groups, 6 animals in each group. On the day of modeling (Day 1), a single dose of 0.7 USP/kg of BLM solution was administered via the tracheal route to the BLM group and each peptide-treated group to induce the model. The negative control group received an equal volume of saline. Treatment dosing started on Day 8. Each peptide-treated group received the peptide drug intratracheally at a dosage of 3 mg/kg, while the positive control group received the peptide of SEQ ID NO: 50 at the same dosage, and the administration frequency was twice a week, with a total of 4 administrations. The BLM model group and the negative control group received an equal volume of solvent (saline) as a control. The procedure followed that described in Example 4.
On Day 21, the lung tissues were dissected, washed with saline to remove blood stains, and dried with gauze. Histopathological analysis was then performed on the dissected lung tissues. The lung tissues were perfused with 0.5 mL of paraformaldehyde via the trachea and placed in 4 mL of paraformaldehyde. A small amount of gauze was added to ensure the lung tissues were completely immersed in the fixative solution. The tissues were fixed for more than 24 hours. One lobe of the left lung and four lobes of the right lung were trimmed to the maximum coronal plane, placed in an embedding cassette, dehydrated overnight, and then paraffin-embedded to make 3 μm sections. An autostainer (Leica, model ST5010) was used for Hematoxylin (Herst, lot no. 201905)-Eosin (Chron, lot no.2018070301) (HE) staining, and MASSON'S trichrome (Celestineblue, Chron, lot no. MKCH8129; Aniline blue, Yuanye, lot no. H70J11S115483; Ponceau, Sigma, lot no. SHBM2047) staining. After mounting the sections, they were scanned using a digital panoramic scanner (Zhiyue, model WS-10). For each lung lobe, ≤10 visual fields were captured under a 20× magnification. The severity of inflammation and the severity of fibrosis were assessed using HE staining and Masson's trichrome staining, respectively, to evaluate the inhibitory effects of the polypeptides on inflammatory infiltration and fibrotic deposition at pathological fibrotic sites.

[6] = test system: TSP-1-dependent TGF-β activation; assay: TSP-1-dependent TGF-β activation in PMA-differentiated THP-1 cells with 293-TGFβ Res reporter cells; type: cell-based; conditions: 100 μM polypeptide, 24 h; ratio to negative control group (1.00)
Protocol: In this Example, the inhibitory effects of the polypeptides on TSP-1-dependent TGF-β activation were detected using a model based on a high TSP-1 expressing cell. In the assay, THP-1 cells (American Typical Culture Collection, ATCC, TIB-20) were induced by phorbol ester (Phorbol 12-myristate 13-acetate, PMA) (Sigma, Catalog No. P1585) and differentiated into macrophage-like cells with distinct macrophage expression profiles.
The experiment was performed as follows: THP-1 cells were inoculated in a 96-well plate, and treated with 300 nM PMA for differentiation and adherence to form macrophage-like cells. 100 μM polypeptide was added (For the negative control group, an equal volume of PBS (the solvent for the polypeptide) was added, while the positive control group received an equal concentration of the polypeptide shown in SEQ ID NO: 50.) The cells were treated for 24 hours, and then a 293 reporter cell strain, 293-TGFβ Res cell strain (novoprotein, Catalog No. XCC03-1), was added for detecting TGF-β activity, and co-cultivated for 24 hours. Bio-Lite Luciferase Assay lysate comprising fluorescent substrate (Vazyme, Catalog No. DD1201-01) was added, and the fluorescent intensity was detected using a multifunctional microplate reader (TECAN, model Infinite 200 Pro). The inhibitory effect of the polypeptide on TGF-β activation was assessed by calculating the ratio of the fluorescence signal from the polypeptide-treated groups to that of the negative control group.

[7] = 100 μM polypeptide, 0.25 μg/mL Fc-tagged CD36, blocking of CD36 binding to TSP-1

T1 sequence (P07996 19-1170): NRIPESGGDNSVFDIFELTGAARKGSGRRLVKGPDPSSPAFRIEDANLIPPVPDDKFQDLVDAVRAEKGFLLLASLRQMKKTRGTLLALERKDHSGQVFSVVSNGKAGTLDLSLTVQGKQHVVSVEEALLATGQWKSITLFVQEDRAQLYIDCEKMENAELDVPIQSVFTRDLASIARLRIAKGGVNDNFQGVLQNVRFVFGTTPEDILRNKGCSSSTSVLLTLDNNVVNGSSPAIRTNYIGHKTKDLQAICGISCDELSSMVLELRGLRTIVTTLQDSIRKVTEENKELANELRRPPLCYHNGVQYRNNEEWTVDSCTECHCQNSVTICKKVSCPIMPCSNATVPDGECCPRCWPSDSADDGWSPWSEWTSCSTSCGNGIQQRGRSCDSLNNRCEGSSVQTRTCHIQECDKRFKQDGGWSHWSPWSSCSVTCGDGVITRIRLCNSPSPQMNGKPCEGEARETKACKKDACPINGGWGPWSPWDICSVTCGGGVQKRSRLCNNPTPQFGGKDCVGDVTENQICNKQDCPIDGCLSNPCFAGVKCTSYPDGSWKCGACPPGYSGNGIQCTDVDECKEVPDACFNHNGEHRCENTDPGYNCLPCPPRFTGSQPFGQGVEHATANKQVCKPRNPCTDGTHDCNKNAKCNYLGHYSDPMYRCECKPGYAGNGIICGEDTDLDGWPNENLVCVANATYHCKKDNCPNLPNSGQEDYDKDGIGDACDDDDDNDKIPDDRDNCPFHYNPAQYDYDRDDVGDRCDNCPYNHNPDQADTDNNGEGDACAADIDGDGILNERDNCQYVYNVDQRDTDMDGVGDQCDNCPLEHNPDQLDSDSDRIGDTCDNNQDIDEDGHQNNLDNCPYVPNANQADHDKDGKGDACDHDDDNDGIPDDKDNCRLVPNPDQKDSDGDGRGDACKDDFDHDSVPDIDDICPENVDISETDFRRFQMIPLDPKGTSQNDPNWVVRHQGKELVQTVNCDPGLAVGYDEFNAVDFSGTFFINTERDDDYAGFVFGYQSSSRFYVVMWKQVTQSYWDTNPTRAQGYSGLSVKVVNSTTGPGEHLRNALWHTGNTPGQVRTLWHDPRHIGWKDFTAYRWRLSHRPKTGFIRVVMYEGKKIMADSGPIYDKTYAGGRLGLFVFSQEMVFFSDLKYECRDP

Substance	active TGF-β content in lung tissue, ratio to model group, Mean(%) (active TGF-β)	Blocking rate (Mean, %) [1, 7] [%]	MCF7 migration Mean (%) [2] [%]	A549 migration Mean (%) [3] [%]	HEPG2/C3A migration Mean (%) [4] [%]	P-Smad2/3 content in lung tissue, ratio to model group, Mean(%) (P-Smad2/3)	Inflammatory score Mean ([5]; 3 mg/kg intratracheal twice weekly x4 from Day 8, Day 21, HE staining, BLM model 2.25, negative control 0.36)	Fibrosis score Mean ([5]; 3 mg/kg intratracheal twice weekly x4 from Day 8, Day 21, Masson's trichrome, BLM model 3.25, negative control 1.01)	inhibition at 100 µM ([1]; 3 h, 100 μM polypeptide, 0.25 μg/mL Fc-tagged CD36, blocking of CD36 binding to TSP-1, read-out: Blocking rate (Mean, %)) [%]	IC50 ([1]; concentrations 0-100 μM) [µM]	Mean (relative fluorescence intensity) [6]
Ac-Gln-Asp-Ala-Glu-Asp-Asn-NH2 (Ac-QDAEDN-NH2) [SEQ ID NO: 05]	74.15	15.07	42.55	63.92	74.72	72.35	–	–	–	–	–
Ac-Thr-Gln-Asp-Ala-Glu-Asp-NH2 (Ac-TQDAED-NH2) [SEQ ID NO: 04]	74.10	16.89	62.78	57.90	81.13	67.91	–	–	–	–	–
H-YRVRFLAKENVTQDAEDN-OH [SEQ ID NO: 50, Tyr-Arg-Val-Arg-Phe-Leu-Ala-Lys-Glu-Asn-Val-Thr-Gln-Asp-Ala-Glu-Asp-Asn, reference compound]	–	–	–	–	–	–	1.98	2.81	23.4	10.6	0.84
